≈ marks a conversion by molar mass, not a printed value.
Assays:
[1] = Lyophilisation solubility assay (LYSA); format: physicochemical; conditions: phosphate buffer, pH 6.5, aqueous buffer, thermodynamic from solid, 0.05 M phosphate buffer, HPLC-UV
Procedure, shortened: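 Read-out is HPLC-UV of the filtered solution and its 1/10 dilution. The dried residue of a 10 mM DMSO stock was redissolved in 0.05 M pH 6.5 phosphate buffer, then stirred 1 h, shaken 2 h and held overnight. Run in duplicate.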

[2] = Cytotoxicity assay (HepG2, CellTiter-Blue cell viability); format: cell-based; conditions: human; HepG2 cells, 3 days treatment; "*": the detection limit; read-out: CC50
Procedure: The cytotoxicity of compounds of present invention was assessed by HepG2 assay. HepG2 cells (ATCC HB-8065™) were seeded into 96-well plates (1.2×10^4 cells per well) and treated with compounds for 3 days, cell viability was measured at day 3 post compound treatment using the CellTiter-Blue® Cell Viability Assay (Promega, Cat. No. G8082). 20 μL of Cell titer blue buffer were added to each well of the cells, which were incubated for 3 hours at 37° C., and the fluorescence value was measured by a plate reader (Molecular Device SpectraMax M2). The CC50 value of each compound is plotted with GraphPad Prism using four parameter logistic equation.

S. aureus (ATCC29213) = assay: 50% growth inhibitory concentration (IC50) determination assay; format: cell-based; conditions: Iso-Sensitest broth, 0.098 = detection limit
Procedure, shortened: (§1)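 Compounds were two-fold serially diluted (50 to 0.097 μM final) in Iso-Sensitest broth, with ~5×10^5 CFU/mL bacteria. Plates were incubated at 35±2° C and growth followed by OD600 every 20 min over 16 h to derive IC50.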

[3] = system: K. pneumoniae (ATCC10031); assay: as above; format: cell-based; conditions: Iso-Sensitest broth, 0.098 = detection limit
Procedure, shortened: as §1

A. baumannii (ATCC17978) = assay: as above; format: cell-based; conditions: Iso-Sensitest broth, 0.098 = detection limit
Procedure, shortened: as §1

[4] = Acinetobacter baumannii, ATCC17978, A. baumannii ATCC17978

Compound	solubility thermodynamic [1]	CC50 at 3 days [2]	IC50 (S. aureus (ATCC29213); Staphylococcus aureus)	IC50 ([3]; Klebsiella pneumoniae)	IC50 (A. baumannii (ATCC17978); [4])	IC50 (S. aureus (ATCC29213))	IC50 [3]	IC50 (A. baumannii (ATCC17978); A. baumannii ATCC17978)
CNc1cc(F)cc2c1[nH]c1ncc(-c3cnc4c(c3)c(=O)c(C(=O)O)cn4C)c(N3CCN(C)CC3)c12 [Example 1.184]	52 µg/mL (≈ 101 µM)	28700 nM	< 0.098 µM	< 0.098 µM	0.148 µM	–	–	–
CNc1cc(F)c(F)c2c1[nH]c1ncc(-c3cnc4c(c3)c(=O)c(C(=O)O)cn4NC)c(N3CCCC(N(C)C)C3)c12 (stereo not drawn) [Example 1.191]	181 µg/mL (≈ 314 µM)	29100 nM	0.195 µM	< 0.098 µM	0.197 µM	–	–	–
CNc1cc(F)c(F)c2c1[nH]c1ncc(-c3cnc4c(c3)c(=O)c(C(=O)O)cn4C)c(N3CCN4CCOCC4C3)c12 (stereo not drawn) [Example 1.134]	11 µg/mL (≈ 19.1 µM)	> 100000 nM	–	–	–	–	–	–
CNc1cc(F)c(F)c2c1[nH]c1ncc(-c3cnc4c(c3)c(=O)c(C(=O)O)cn4C)c(N3CCCC3CN(C)C)c12 (stereo not drawn) [Example 1.12]	321 µg/mL (≈ 572 µM)	39200 nM	0.11 µM	< 0.098 µM	0.294 µM	–	–	–
CNc1cc(F)c(F)c2c1[nH]c1ncc(-c3cnc4c(c3)c(=O)c(C(=O)O)cn4C)c(N3CCC(CN(C)C)C3)c12 (stereo not drawn) [Example 1.135]	266 µg/mL (≈ 474 µM)	29300 nM	< 0.098 µM	< 0.098 µM	0.153 µM	–	–	–
CNc1cc(F)c(F)c2c1[nH]c1ncc(-c3cnc4c(c3)c(=O)c(C(=O)O)cn4CC(C)(C)N)c(N3CCOCC3)c12 [Example 1.38]	15 µg/mL (≈ 26 µM)	> 100000 nM	0.181 µM	< 0.098 µM	0.883 µM	–	–	–
CNc1cc(F)c(F)c2c1[nH]c1ncc(-c3cnc4c(c3)c(=O)c(C(=O)O)cn4NCCOC)c(N3CC[C@H]4CN(C)C[C@H]43)c12 (relative stereo) [Example 5.01, 6-[4-[cis-5-methyl-2,3,3a,4,6,6a-hexahydropyrrolo[2,3-c]pyrrol-1-yl]-5,6-difluoro-8-(methylamino)-9H-pyrido[2,3-b]indol-3-yl]-1-(2-methoxyethylamino)-4-oxo-1,8-naphthyridine-3-carboxylic acid]	425 µg/mL (≈ 687 µM)	43500 nM	–	–	0.19 µM	–	–	–
CNc1cc(F)c(F)c2c1[nH]c1ncc(-c3cnc4c(c3)c(=O)c(C(=O)O)cn4C)c(N3CCC4(CCCN(CCO)C4)C3)c12 (stereo not drawn) [Example 1.194]	–	72000 nM	< 0.098 µM	< 0.098 µM	0.199 µM	–	–	–
CCNc1cc(F)c(F)c2c1[nH]c1ncc(-c3cnc4c(c3)c(=O)c(C(=O)O)cn4C3CCNC3)c(N(C)C)c12 (stereo not drawn) [Example 1.140]	–	> 100000 nM	< 0.098 µM	< 0.098 µM	0.631 µM	–	–	–
CNc1cc(F)c(F)c2c1[nH]c1ncc(-c3cnc4c(c3)c(=O)c(C(=O)O)cn4C)c(N3CC[C@@H](O)C3)c12 [Example 1.151]	–	37200 nM	< 0.098 µM	< 0.098 µM	0.311 µM	–	–	–
CNc1cc(F)cc2c1[nH]c1ncc(-c3cnc4c(c3)c(=O)c(C(=O)O)cn4[C@@H](C)CO)c(N3CCOCC3)c12 [Example 1.216]	–	> 100000 nM	< 0.098 µM	< 0.098 µM	0.424 µM	–	–	–
CNc1cc(F)c(Cl)c2c1[nH]c1ncc(-c3cnc4c(c3)c(=O)c(C(=O)O)cn4C)c(N3CCOCC3)c12 [Example 1.269]	–	40800 nM	< 0.098 µM	< 0.098 µM	0.088 µM	–	–	–
CNCCn1cc(C(=O)O)c(=O)c2cc(-c3cnc4[nH]c5c(NC)cc(F)c(F)c5c4c3N(C)C)cnc21 [Example 1.26]	–	32500 nM	< 0.098 µM	< 0.098 µM	0.569 µM	–	–	–
CNc1cc(F)cc2c1[nH]c1ncc(-c3cnc4c(c3)c(=O)c(C(=O)O)cn4C)c(N3CCC(C)(O)C3)c12 (stereo not drawn) [Example 1.59]	–	27900 nM	< 0.098 µM	< 0.098 µM	0.658 µM	–	–	–
CCNc1cc(F)cc2c1[nH]c1ncc(-c3cnc4c(c3)c(=O)c(C(=O)O)cn4CC)c(-n3cc(CN)c(C(F)(F)F)n3)c12 [Example 1.15]	–	> 100000 nM	< 0.098 µM	< 0.098 µM	0.403 µM	–	–	–
CNc1cc(F)c(F)c2c1[nH]c1ncc(-c3cnc4c(c3)c(=O)c(C(=O)O)cn4C)c(N3C[C@H](C)[C@@H](O)C3)c12 [Example 1.83]	–	26400 nM	< 0.098 µM	< 0.098 µM	0.519 µM	–	–	–
CNc1cc(F)c(F)c2c1[nH]c1ncc(-c3cnc4c(c3)c(=O)c(C(=O)O)cn4C3CCNC3)c(N3CCSCC3)c12 (stereo not drawn) [Example 1.98]	–	> 100000 nM	8.84 µM	0.107 µM	0.744 µM	–	–	–
CNc1cc(F)c(F)c2c1[nH]c1ncc(-c3cnc4c(c3)c(=O)c(C(=O)O)cn4CC3CCN(C)CC3)c(N(C)C)c12 [Example 1.32]	–	50100 nM	< 0.098 µM	< 0.098 µM	0.353 µM	–	–	–
CNc1cc(F)c(F)c2c1[nH]c1ncc(-c3cnc4c(c3)c(=O)c(C(=O)O)cn4CC(C)(C)O)c(N3CCOCC3)c12 [Example 1.35]	–	76900 nM	< 0.098 µM	< 0.098 µM	0.663 µM	–	–	–
CNc1cc(F)c(F)c2c1[nH]c1ncc(-c3cnc4c(c3)c(=O)c(C(=O)O)cn4C(C)CO)c(N3CCOCC3)c12 (stereo not drawn) [Example 1.51]	–	> 100000 nM	< 0.098 µM	< 0.098 µM	0.533 µM	–	–	–
CNc1cc(F)c(F)c2c1[nH]c1ncc(-c3cnc4c(c3)c(=O)c(C(=O)O)cn4C)c(N3CC[C@H](O)C3)c12 [Example 1.163]	–	28800 nM	< 0.098 µM	< 0.098 µM	0.171 µM	–	–	–
CNc1cc(F)cc2c1[nH]c1ncc(-c3cnc4c(c3)c(=O)c(C(=O)O)cn4C)c(N3CCC(CO)C3)c12 (stereo not drawn) [Example 1.54]	–	> 100000 nM	< 0.098 µM	< 0.098 µM	0.461 µM	–	–	–
CNc1cc(F)c(F)c2c1[nH]c1ncc(-c3cnc4c(c3)c(=O)c(C(=O)O)cn4C)c(N3CCC(F)(CN)C3)c12 (stereo not drawn) [Example 1.23]	–	> 100000 nM	< 0.098 µM	< 0.098 µM	0.507 µM	–	–	–
CNc1cc(F)cc2c1[nH]c1ncc(-c3cnc4c(c3)c(=O)c(C(=O)O)cn4C(C)CO)c(N3CCOCC3)c12 (stereo not drawn) [Example 1.45]	–	> 100000 nM	< 0.098 µM	< 0.098 µM	0.472 µM	–	–	–
CNc1cc(F)c(F)c2c1[nH]c1ncc(-c3cnc4c(c3)c(=O)c(C(=O)O)cn4NC)c(N3CC[C@H]4CN(C)C4C3)c12 (stereo partly drawn) [Example 1.214]	–	40800 nM	< 0.098 µM	< 0.098 µM	0.111 µM	–	–	–
CNc1cc(F)cc2c1[nH]c1ncc(-c3cnc4c(c3)c(=O)c(C(=O)O)cn4NC)c(N3CC[C@H]4CCN(C)C4C3)c12 (stereo partly drawn) [Example 1.212]	–	33900 nM	0.168 µM	< 0.098 µM	0.18 µM	–	–	–
CNc1cc(F)c(F)c2c1[nH]c1ncc(-c3cnc4c(c3)c(=O)c(C(=O)O)cn4C3CCNC3)c(N(C)C)c12 (stereo not drawn) [Example 1.150]	–	> 100000 nM	–	–	–	< 0.098 µM	< 0.098 µM	0.273 µM
CNc1cc(F)c(F)c2c1[nH]c1ncc(-c3cnc4c(c3)c(=O)c(C(=O)O)cn4C)c(N3CC[C@H](CO)C3)c12 [Example 1.164]	–	99300 nM	< 0.098 µM	< 0.098 µM	0.472 µM	–	–	–
